Data reported in ChEMBL document CHEMBL3885881, “DrugMatrix”.

Species: Rattus norvegicus
Assay: DrugMatrix - Regimen: Daily Repeat
Type: toxicity, organism-based, Sprague-Dawley
Design: regimen Daily Repeat, gender Male, age 6-8 weeks
Details: in vivo, po, route oral GAVAGE, vehicle 100 % WATER; for ABSOLUTE BASOPHIL / ABSOLUTE EOSINOPHIL / ABSOLUTE LYMPHOCYTE / ABSOLUTE MONOCYTE / ABSOLUTE SEGMENTED NEUTROPHIL / BASOPHIL / EOSINOPHIL / ERYTHROCYTE COUNT / HEMATOCRIT / HEMOGLOBIN / LEUKOCYTE COUNT / LYMPHOCYTE / MEAN CORPUSCULAR HEMOGLOBIN / MEAN CORPUSCULAR HEMOGLOBIN CONCENTRATION / MEAN CORPUSCULAR VOLUME / MONOCYTE / NEUTROPHIL / NUCLEATED RED BLOOD CELLS / PLATELET COUNT: tissue Blood; for ALANINE AMINOTRANSFERASE / ALBUMIN / ALKALINE PHOSPHATASE / ASPARTATE AMINOTRANSFERASE / BLOOD UREA NITROGEN / CARBON DIOXIDE / CHLORIDE / CHOLESTEROL / CREATINE PHOSPHOKINASE / CREATININE / GLUCOSE / LACTATE DEHYDROGENASE / LIPASE / PHOSPHORUS / POTASSIUM / SODIUM / TOTAL BILIRUBIN / TOTAL PROTEIN / URIC ACID: tissue Plasma
[1] = 0 mg/kg, 72 h, dose level Control, time 3 day
[2] = 0 mg/kg, 120 h, dose level Control, time 5 day
[3] = 28 mg/kg, 72 h, dose level Low, time 3 day

## Cn1cc[nH]c1=S [METHIMAZOLE]
[1]
  ABSOLUTE BASOPHIL: 0 CELLS/uL
  ABSOLUTE EOSINOPHIL: 0 CELLS/uL
  ABSOLUTE LYMPHOCYTE: 8482.5 CELLS/uL
  ABSOLUTE MONOCYTE: 63.83 CELLS/uL
  ABSOLUTE SEGMENTED NEUTROPHIL: 887 CELLS/uL
  BASOPHIL: 0%
  EOSINOPHIL: 0%
  ERYTHROCYTE COUNT: 5.49 x10E6/uL
  HEMATOCRIT: 34.5%
  HEMOGLOBIN: 13.33 G/DL
  LEUKOCYTE COUNT: 9.43 x10E3/uL
  LYMPHOCYTE: 90.17%
  MEAN CORPUSCULAR HEMOGLOBIN: 24.3 pg
  MEAN CORPUSCULAR HEMOGLOBIN CONCENTRATION: 38.63 G/DL
  MEAN CORPUSCULAR VOLUME: 62.88 fL
  MONOCYTE: 0.67%
  NEUTROPHIL: 9.17%
  NUCLEATED RED BLOOD CELLS: 0.67 /100WBC
  PLATELET COUNT: 1022.83 x10E3/uL
  ALANINE AMINOTRANSFERASE: 50.5 u/L
  ALBUMIN: 4.08 G/DL
  ALKALINE PHOSPHATASE: 368.33 u/L
  ASPARTATE AMINOTRANSFERASE: 87.5 u/L
  BLOOD UREA NITROGEN: 12.83 mg/dL
  CARBON DIOXIDE: 32.83 mmol/L
  CHLORIDE: 99.67 MEQ/L
  CHOLESTEROL: 79.67 mg/dL
  CREATINE PHOSPHOKINASE: 585 u/L
  CREATININE: 0.22 mg/dL
  GLUCOSE: 135.67 mg/dL
  LACTATE DEHYDROGENASE: 171 u/L
  LIPASE: 9.5 u/L
  PHOSPHORUS: 11.18 mg/dL
  POTASSIUM: 6.25 MEQ/L
  SODIUM: 144.87 MEQ/L
  TOTAL BILIRUBIN: 0.2 mg/dL
  TOTAL PROTEIN: 6.08 G/DL
  URIC ACID: 0.65 mg/dL
[2]
  ABSOLUTE BASOPHIL: 0 CELLS/uL
  ABSOLUTE EOSINOPHIL: 14.5 CELLS/uL
  ABSOLUTE LYMPHOCYTE: 7596.17 CELLS/uL
  ABSOLUTE MONOCYTE: 69.67 CELLS/uL
  ABSOLUTE SEGMENTED NEUTROPHIL: 503 CELLS/uL
  BASOPHIL: 0%
  EOSINOPHIL: 0.17%
  ERYTHROCYTE COUNT: 5.49 x10E6/uL
  HEMATOCRIT: 34.72%
  HEMOGLOBIN: 13.47 G/DL
  LEUKOCYTE COUNT: 8.18 x10E3/uL
  LYMPHOCYTE: 92.17%
  MEAN CORPUSCULAR HEMOGLOBIN: 24.57 pg
  MEAN CORPUSCULAR HEMOGLOBIN CONCENTRATION: 38.82 G/DL
  MEAN CORPUSCULAR VOLUME: 63.3 fL
  MONOCYTE: 1%
  NEUTROPHIL: 6.67%
  NUCLEATED RED BLOOD CELLS: 0 /100WBC
  PLATELET COUNT: 1141 x10E3/uL
  ALANINE AMINOTRANSFERASE: 48.33 u/L
  ALBUMIN: 4.07 G/DL
  ALKALINE PHOSPHATASE: 395.67 u/L
  ASPARTATE AMINOTRANSFERASE: 85.67 u/L
  BLOOD UREA NITROGEN: 15.83 mg/dL
  CARBON DIOXIDE: 31.33 mmol/L
  CHLORIDE: 100.83 MEQ/L
  CHOLESTEROL: 62.33 mg/dL
  CREATINE PHOSPHOKINASE: 248.33 u/L
  CREATININE: 0.2 mg/dL
  GLUCOSE: 135.67 mg/dL
  LACTATE DEHYDROGENASE: 141.33 u/L
  LIPASE: 9.5 u/L
  PHOSPHORUS: 10.73 mg/dL
  POTASSIUM: 6.07 MEQ/L
  SODIUM: 145.35 MEQ/L
  TOTAL BILIRUBIN: 0.22 mg/dL
  TOTAL PROTEIN: 6.12 G/DL
  URIC ACID: 0.63 mg/dL
[3]
  ABSOLUTE BASOPHIL: 0 CELLS/uL
  ABSOLUTE EOSINOPHIL: 0 CELLS/uL
  ABSOLUTE LYMPHOCYTE: 8790 CELLS/uL
  ABSOLUTE MONOCYTE: 67.33 CELLS/uL
  ABSOLUTE SEGMENTED NEUTROPHIL: 776 CELLS/uL
  BASOPHIL: 0%
  EOSINOPHIL: 0%
  ERYTHROCYTE COUNT: 5.45 x10E6/uL
  HEMATOCRIT: 33.93%
  HEMOGLOBIN: 13.23 G/DL
  LEUKOCYTE COUNT: 9.63 x10E3/uL
  LYMPHOCYTE: 91.33%
  MEAN CORPUSCULAR HEMOGLOBIN: 24.3 pg
  MEAN CORPUSCULAR HEMOGLOBIN CONCENTRATION: 39 G/DL
  MEAN CORPUSCULAR VOLUME: 62.37 fL
  MONOCYTE: 0.67%
  NEUTROPHIL: 8%
  NUCLEATED RED BLOOD CELLS: 0.33 /100WBC
  PLATELET COUNT: 926 x10E3/uL
  ALANINE AMINOTRANSFERASE: 53.33 u/L
  ALBUMIN: 4.17 G/DL
  ALKALINE PHOSPHATASE: 410.67 u/L
  ASPARTATE AMINOTRANSFERASE: 78 u/L
  BLOOD UREA NITROGEN: 11.33 mg/dL
  CARBON DIOXIDE: 33 mmol/L
  CHLORIDE: 98.67 MEQ/L
  CHOLESTEROL: 91.33 mg/dL
  CREATINE PHOSPHOKINASE: 269.33 u/L
  CREATININE: 0.34 mg/dL
  GLUCOSE: 123 mg/dL
  LACTATE DEHYDROGENASE: 147.67 u/L
  LIPASE: 11 u/L
  PHOSPHORUS: 10.97 mg/dL
  POTASSIUM: 6.8 MEQ/L
  SODIUM: 143.6 MEQ/L
  TOTAL BILIRUBIN: 0.23 mg/dL
  TOTAL PROTEIN: 6.13 G/DL
  URIC ACID: 0.8 mg/dL
